The target in data set [1] is T1, mMATE1 (Mus musculus, UniProt Q8K0H1).
T1 sequence (Q8K0H1 1-567): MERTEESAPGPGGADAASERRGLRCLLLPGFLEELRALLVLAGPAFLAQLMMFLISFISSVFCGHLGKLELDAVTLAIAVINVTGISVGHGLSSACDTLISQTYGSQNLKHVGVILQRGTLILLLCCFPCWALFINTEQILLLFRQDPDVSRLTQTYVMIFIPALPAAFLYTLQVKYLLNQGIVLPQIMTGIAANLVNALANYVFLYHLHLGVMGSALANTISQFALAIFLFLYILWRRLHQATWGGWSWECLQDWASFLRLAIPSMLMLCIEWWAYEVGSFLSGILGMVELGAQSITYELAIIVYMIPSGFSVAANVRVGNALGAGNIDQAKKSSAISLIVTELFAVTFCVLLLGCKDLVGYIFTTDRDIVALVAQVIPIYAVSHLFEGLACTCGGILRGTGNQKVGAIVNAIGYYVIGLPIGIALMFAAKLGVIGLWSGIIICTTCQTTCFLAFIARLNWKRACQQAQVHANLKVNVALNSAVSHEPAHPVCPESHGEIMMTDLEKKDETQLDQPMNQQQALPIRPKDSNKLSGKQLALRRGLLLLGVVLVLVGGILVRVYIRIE
The data set can be described thus: cell-based.

The conditions of data set [2]: cited from earlier work.
The test system of the next data set is LLC-PK1. Particulars: LLC-PK1 cells; cited from earlier work.
Data set [3] addresses T2, hMATE2-K (Homo sapiens, UniProt Q86VL8). Kind of data set: cell-based. As for the experimental part: (§1) For transient expression, HEK293 cells were seeded on 24-well (2 × 10^5 cells/well) poly-D-lysine-coated plates (BD Biocoat, Franklin Lakes, NJ, USA) and transfected with hMATE1, hMATE2-K and mMATE1 cDNA containing plasmid vectors and empty vectors (pcDNA3.1(+) for hMATE1 and hMATE2-K, pFLAG for mMATE1) by using the LipofectAMINE 2000 Reagent (Life Technologies Corporation), according to the manufacturer’s instructions. The cells were used for uptake experiments at 48 h after transfection, while the empty vector-expressing cells were used as control.
(§2) The cells were dissolved in 0.5 mL of 0.5 normality (N) sodium hydroxide (NaOH), and then, the radioactivity in 200 µL was determined using liquid scintillation counting following addition to 2 mL of Ultima Gold (PerkinElmer). The protein content of each NaOH solution was determined using a Bio-Rad Protein Assay Kit (Bio-Rad Laboratories, Hercules, CA, USA) by using bovine γ-globulin as a standard. The Km and Vmax values were calculated from the saturation curve using the Michaelis–Menten equation, V = Vmax[S]/(Km + [S]), with Kaleidagraph Version 4.00 (Synergy Software, Reading, PA, USA) after the nonspecific uptake values were subtracted.

Data set [4] addresses T2, hMATE2-K. To be noted: [3H]dopamine uptake, HEK293 cells expressing hMATE2-K. As for the experimental part:
as §1, §2

In data set [5] the target is T1, mMATE1. To be noted: [3H]dopamine uptake, HEK293 cells expressing mMATE1. As for the experimental part:
as §1, §2

For the next data set, the target named is T3, hMATE1 (Homo sapiens, UniProt Q96FL8).
T3 sequence (Q96FL8 1-570): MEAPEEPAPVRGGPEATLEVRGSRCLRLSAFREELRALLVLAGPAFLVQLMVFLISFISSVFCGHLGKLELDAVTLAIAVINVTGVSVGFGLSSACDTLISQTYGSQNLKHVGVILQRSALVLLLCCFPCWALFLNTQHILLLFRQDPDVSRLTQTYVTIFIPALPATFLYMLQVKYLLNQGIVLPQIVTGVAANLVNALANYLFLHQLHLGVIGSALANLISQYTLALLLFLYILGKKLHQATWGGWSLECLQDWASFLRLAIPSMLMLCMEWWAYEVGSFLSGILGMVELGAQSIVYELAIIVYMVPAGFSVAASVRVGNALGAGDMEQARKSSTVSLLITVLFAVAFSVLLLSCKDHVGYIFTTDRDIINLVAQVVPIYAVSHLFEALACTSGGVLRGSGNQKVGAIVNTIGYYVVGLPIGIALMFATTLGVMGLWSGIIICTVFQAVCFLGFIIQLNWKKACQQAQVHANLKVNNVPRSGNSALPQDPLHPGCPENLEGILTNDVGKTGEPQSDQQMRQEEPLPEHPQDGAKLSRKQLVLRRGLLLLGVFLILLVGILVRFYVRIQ
The data set can be described thus: [3H]dopamine uptake kinetics in HEK293 cells transiently expressing hMATE1. The class given is cell-based. The procedure: as §1, §2

Where [6] appears, read: patients with CML (imatinib also gastrointestinal stromal tumors), efficacy target for imatinib and nilotinib, safety limit for dasatinib.

Read-outs that look alike come from different tables or passages of the source.

T2 sequence (Q86VL8 1-566 isoform Q86VL8-3): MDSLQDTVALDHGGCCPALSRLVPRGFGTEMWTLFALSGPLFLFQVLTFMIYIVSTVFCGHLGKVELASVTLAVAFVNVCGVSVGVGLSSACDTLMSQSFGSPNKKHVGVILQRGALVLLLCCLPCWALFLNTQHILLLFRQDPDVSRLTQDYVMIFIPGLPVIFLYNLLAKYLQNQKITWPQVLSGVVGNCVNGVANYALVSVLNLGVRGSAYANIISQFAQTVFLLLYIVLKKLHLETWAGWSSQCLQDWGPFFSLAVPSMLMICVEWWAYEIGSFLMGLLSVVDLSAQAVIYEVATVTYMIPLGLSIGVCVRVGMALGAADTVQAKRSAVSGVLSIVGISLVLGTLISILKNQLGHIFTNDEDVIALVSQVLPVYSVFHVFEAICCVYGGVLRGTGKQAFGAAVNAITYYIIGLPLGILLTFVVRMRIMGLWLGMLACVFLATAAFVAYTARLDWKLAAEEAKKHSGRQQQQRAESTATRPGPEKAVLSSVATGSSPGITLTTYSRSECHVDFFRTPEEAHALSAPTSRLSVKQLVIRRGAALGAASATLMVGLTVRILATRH

On mMATE1 [1], `Cc1nc(Nc2ncc(C(=O)Nc3c(C)cccc3Cl)s2)cc(N2CCN(CCO)CC2)n1` [Dasatinib, dasatinib] yielded a 50% inhibitory concentration (IC50) of 106 ± 7 µM. Further, the “plasma trough concentration (Ctrough), clinical target” value in data set [2] (setting [6]) is ≤ 2.5 ng/mL; in data set [2] (same targets in molar units) it was ≤ 5 nM.
For the compound `Fc1ccc(C(OCCN2CCN(CCCc3ccccc3)CC2)c2ccc(F)cc2)cc1` [GBR-12909], in the data set with LLC-PK1, the “inhibition of outward transfer of synthesized dopamine” value is given as “failed to inhibit”.
On to `Cc1cn(-c2cc(NC(=O)c3ccc(C)c(Nc4nccc(-c5cccnc5)n4)c3)cc(C(F)(F)F)c2)cn1` [Nilotinib, nilotinib], for which the IC50 on mMATE1 [1] and on hMATE2-K [3] was > 100 µM each time. Also, the “plasma trough concentration (Ctrough), clinical target” value is > 761 ng/mL in data set [2] (setting [6]) and > 1400 nM in data set [2] (same targets in molar units).
As for `COC(=O)[C@H]1[C@@H](OC(=O)c2ccccc2)C[C@@H]2CC[C@H]1N2C` [cocaine], the “inhibition of outward transfer of synthesized dopamine” value in the data set with LLC-PK1 is reported as “failed to inhibit”.
Regarding `NCCc1ccc(O)c(O)c1` [dopamine], the Vmax on hMATE2-K [4] came out at 7.69 ± 1.12 nmol·mg·protein^−1·min^−1; on mMATE1 [5], 8.73 ± 0.08 nmol·mg·protein^−1·min^−1; at hMATE1 ([3H]dopamine uptake, HEK293 cells expressing hMATE1), 3.71 ± 0.15 nmol·mg·protein^−1·min^−1. Moreover, the Michaelis-Menten constant (Km) at hMATE1 ([3H]dopamine uptake at 1 min, HEK293 cells expressing hMATE1, mean ± S.E., n=3) is 560 ± 180 µM.

The values above are taken from PMC5000626 (International Journal of Molecular Sciences, 2016).
